Test results reported in ChEMBL document CHEMBL4419120, “Bitter taste receptors” (2015).

How the values were obtained:
Assay type in all cases: functional, cell-based
[1] = target: T1, Taste receptor type 2 member 46 (Homo sapiens) (UniProt P59540); test: Activity at human TAS2R46 expressed in HEK-293T-Galpha16-gustducin44 cells assessed as threshold concentration of compound at which point receptor detects compounds by measuring calcium response by FLIPR assay
T1 sequence (whole entry): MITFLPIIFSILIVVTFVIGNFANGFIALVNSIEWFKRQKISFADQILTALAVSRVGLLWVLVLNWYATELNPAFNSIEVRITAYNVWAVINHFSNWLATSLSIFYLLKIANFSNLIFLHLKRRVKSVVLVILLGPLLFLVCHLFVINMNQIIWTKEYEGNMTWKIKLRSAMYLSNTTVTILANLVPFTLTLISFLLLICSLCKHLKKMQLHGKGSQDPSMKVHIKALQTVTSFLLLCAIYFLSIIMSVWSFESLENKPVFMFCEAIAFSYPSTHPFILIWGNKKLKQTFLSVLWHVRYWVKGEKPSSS

[2] = target: T2, Taste receptor type 2 member 19 (Homo sapiens) (UniProt P59542); test: Activity at human TAS2R48 expressed in HEK-293T-Galpha16-gustducin44 cells assessed as threshold concentration of compound at which point receptor detects compounds by measuring calcium response by FLIPR assay
T2 sequence (whole entry): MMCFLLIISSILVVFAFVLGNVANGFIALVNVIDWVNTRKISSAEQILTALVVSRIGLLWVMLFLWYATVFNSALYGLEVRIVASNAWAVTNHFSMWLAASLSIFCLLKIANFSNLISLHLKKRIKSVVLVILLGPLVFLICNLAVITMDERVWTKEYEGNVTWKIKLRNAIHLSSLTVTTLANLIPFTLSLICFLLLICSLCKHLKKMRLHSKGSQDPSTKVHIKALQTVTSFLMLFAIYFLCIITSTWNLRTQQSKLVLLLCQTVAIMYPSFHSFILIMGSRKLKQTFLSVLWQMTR

[3] = target: T3, Taste receptor type 2 member 10 (Homo sapiens) (UniProt Q9NYW0); test: Activity at human TAS2R10 expressed in HEK-293T-Galpha16-gustducin44 cells assessed as threshold concentration of compound at which point receptor detects compounds by measuring calcium response by FLIPR assay
T3 sequence (whole entry): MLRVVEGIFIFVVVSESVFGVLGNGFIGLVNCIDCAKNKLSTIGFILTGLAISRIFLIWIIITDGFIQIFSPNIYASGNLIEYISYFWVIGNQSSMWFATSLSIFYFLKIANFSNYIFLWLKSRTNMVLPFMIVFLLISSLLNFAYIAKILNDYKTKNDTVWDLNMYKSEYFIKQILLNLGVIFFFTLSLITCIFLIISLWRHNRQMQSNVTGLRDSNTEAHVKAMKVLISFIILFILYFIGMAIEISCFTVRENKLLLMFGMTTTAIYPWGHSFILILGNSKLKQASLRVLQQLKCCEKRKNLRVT

[4] = target: T4, Taste receptor type 2 member 45 (Homo sapiens) (UniProt P59539); test: Activity at human TAS2R45 expressed in HEK-293T-Galpha16-gustducin44 cells assessed as threshold concentration of compound at which point receptor detects compounds by measuring calcium response by FLIPR assay
T4 sequence (whole entry): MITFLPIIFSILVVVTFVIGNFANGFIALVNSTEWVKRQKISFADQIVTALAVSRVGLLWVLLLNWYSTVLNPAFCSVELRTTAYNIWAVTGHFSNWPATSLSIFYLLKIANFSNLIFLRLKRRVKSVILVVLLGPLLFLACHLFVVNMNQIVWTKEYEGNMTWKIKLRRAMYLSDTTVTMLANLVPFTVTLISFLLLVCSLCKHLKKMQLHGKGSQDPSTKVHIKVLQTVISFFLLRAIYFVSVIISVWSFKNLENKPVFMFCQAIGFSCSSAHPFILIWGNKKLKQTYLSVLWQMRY

Q: What does the source list for CC1=C[C@@H]2[C@@H]3C4C(=C(C)[C@@H]3[C@@]13[C@@H]2[C@@](C)(O)CC[C@H]1[C@H](C)C(=O)O[C@@H]13)[C@H]1OC(=O)[C@@H](C)[C@@H]1CC[C@]4(C)O (some centres undefined)?
A: Activity [1]: 0.001 mM; Activity [2]: 0.03 mM; Activity [3]: 0.01 mM; Activity [4]: 0.003 mM
